From patent publication US8865741B2, “Aminoindane compounds and use thereof in treating pain” (Asana Biosciences, LLC, priority 2011, dated 2014)

How the values were obtained:
[1] = system: sodium channel in hTRPV1-N1E115 cells; test: FLIPR membrane potential assay of sodium channel response in hTRPV1-N1E115 cells, with (47° C.) or without (25° C.) heat activation of hTRPV1; assay type: cell-based; conditions: for hTRPV1-N1E Nav 0.1 mM (% inhibition) 25° C. / hTRPV1-N1E Nav 1 mM (% inhibition) 25° C.: 25° C. (no heat activation of hTRPV1); for hTRPV1-N1E Nav 0.1 mM (% inhibition) 47° C. / hTRPV1-N1E Nav 1 mM (% inhibition) 47° C.: 47° C. (heat activation of hTRPV1); for IC50: 47° C., class symbols, read-out: hTRPV1-N1E IC50 (μM) 47° C.
From the text: In one embodiment, a modified FLIPR® (Fluorometric Imaging Plate Reader) based assay system was developed which is capable of discriminating between non-specific versus hTRPV1-mediated entry of test compounds. Advantageously, the assay system utilizes heat activated opening of hTRPV1 channels followed by an assessment of internal sodium channel block. The assay allows a permanently charged compound to selectively enter through opened hTRPV1 channels and that compound's potency in inhibiting sodium channels from the cytoplasm side of the same cell can be assessed and quantified.
The assay is readily performed in multi-well assay plates into which cells in growth media are added and incubated under conditions which permit the formation of a confluent monolayer over a period of hours prior to the start of the assay. Conventional culture media and conditions may be utilized. Duplicate cell assay plates are prepared for each experiment.
The spent media from the cell seeded plates is removed on the day of the assay and replaced with Membrane potential Dye-Blue (Molecular Devices). The dye was prepared in assay buffer following manufacturer's instructions. The dye-loaded plate is incubated at room temperature (about 25° C.) for about 30 minutes in order to pre-load the cells with dye. Optionally, the cells may be loaded with the dye simultaneously with adding the test compounds.
The test compounds are diluted in the Assay Buffer and added to each well of a specific 384-well ‘compound plate’, which serves as a source plate for compound addition using the FLIPR® platform. The concentration of compounds in the compound-plate was adjusted to achieve the desired final concentration when added to the cells in the ‘cell-plate’. After completion of the dye incubation period, the dye loaded cell-plates and the compound source plates are inserted into the FLIPR® Tetra™ device with a 384 FLIPR® tip box (Molecular Devices, Inc.) according to manufacturer's instructions. The compounds are robotically added to the dye loaded cell-plates using software integral to the FLIPR® Tetra™ instrument.
Immediately following compound addition, hTRPV1 is activated, in one of the duplicate cell plates, by heating. Specifically, entire multi-well plate containing the compound-cells mixture is incubated at 47° C. for 10 minutes, after which they are returned to room temperature (about 25° C.) for a further 30 minutes. Heat activation of hTRPV1 was omitted from the replicate cell plate which was simply maintained at room temperature for the entire 40 minutes.
A membrane potential response is elicited in the dye- and compound-loaded cells by the addition of veratridine which is a known sodium channel ‘agonist’. As illustrated in an example herein, an agonist plate containing veratridine (Sigma) is prepared in advance and is inserted into suitable devices such as, e.g., the FLIPR® TETRA® device for a “2nd addition” as instructed by the manufacturer. The concentration of veratridine in the ‘agonist plate’ was adjusted to achieve a final concentration of 100 μM when added to the cells in the cell-plate. Final concentrations of veratridine greater or lesser than 100 μM may also be used but the signal measured by the FLIPR®^Tetra™ device or another suitable device may vary accordingly.
The exposure of the cells in the cell-plate to veratridine induces sodium channels in the cells to open and the resulting ion flux produces a membrane potential depolarization that is detected as a fluorescence signal by the FLIPR® ^Tetra™ Device. The activity of test compounds is determined by their ability to attenuate the veratridine-induced fluorescence signal, the most promising compounds are those that show an enhanced activity in the heat-activated cell plate over the non-heat-activated cell plate. […]

[2] = system: Male Sprague Dawley (SD) rats; test: In vivo assay of mechanical nociception (rat pinch model, perisciatic injection); conditions: for Average Time of Analgesia: perisciatic
[3] = test compound 0.5%, lidocaine 2%, total injection 100 μL

SMILES	hTRPV1-N1E Nav 0.1 mM (% inhibition) 25° C. [1] [%]	hTRPV1-N1E Nav 0.1 mM (% inhibition) 47° C. [1]	hTRPV1-N1E Nav 1 mM (% inhibition) 25° C. [1]	hTRPV1-N1E Nav 1 mM (% inhibition) 47° C. [1]	IC50 [1] [µM]	duration of anti-nociception effect ([2]; 100 μL injection volume, 0.5% compound with 2% lidocaine (Table 8))	Average Time of Analgesia ([2]; test compound 0.25%, lidocaine 0%, total injection 200 μL) [h]	Average Time of Analgesia ([2]; test compound 0.25%, lidocaine 1%, total injection 200 μL) [h]	Average Time of Analgesia ([2]; test compound 0.5%, lidocaine 0%, total injection 200 μL) [h]	Average Time of Analgesia [2, 3] [h]	Average Time of Analgesia ([2]; test compound 0.5%, lidocaine 2%, total injection 200 μL) [h]
Cc1ccccc1N(CCC1CCCC[N+]1(C)C)C1Cc2ccccc2C1.[I-] (stereo not drawn) [Example 24, 1,1-dimethyl-2-[2-((indan-2-yl)(2-methylphenyl)amino)ethyl]piperidinium iodide]	25.1	88.5 (N = 2) %	57.9 (N = 2) %	84.2 (N = 2) %	1 to 10	up to 32 hours	4	24	12	32	>168
C[N+]1(C)CCCCC1CCN(c1ccccc1F)C1Cc2ccccc2C1.[I-] (stereo not drawn) [Example 4, 1,1-dimethyl-2-[2-((2-fluorophenyl)(indan-2-yl)amino)ethyl]piperidinium iodide]	0	94.7 (N = 3) %	0 (N = 3) %	67.0 (N = 3) %	10 to 100					1	
C[N+]1(C)CCCCC1CCN(c1ccc(F)cc1)C1Cc2ccccc2C1.[I-] (stereo not drawn) [Example 15, 1,1-Dimethyl-2-[2-((4-fluorophenyl)(indan-2-yl)amino)ethyl]piperidinium iodide]	2.8	75.2 (N = 3) %	0.7 (N = 3) %	35.0 (N = 3) %	10 to 100						
C[N+]1(C)CCCCC1CCN(c1cccc(F)c1)C1Cc2ccccc2C1.[I-] (stereo not drawn) [Example 14, 1,1-dimethyl-2-[2-((3-fluorophenyl)(indan-2-yl)amino)ethyl]piperidinium iodide]	6.3	76.7 (N = 3) %	3.8 (N = 3) %	25.3 (N = 3) %	10 to 100						
C[N+]1(C)CCCC[C@@H]1CN(c1ccccc1)C1Cc2ccccc2C1 [Example 33, (R)-1,1-Dimethyl-2-[((indan-2-yl)(phenyl)amino)methyl]piperidinium iodide]					10 to 100						
CC[N+]1(CC)CCCCC1CCN(c1ccccc1C)C1Cc2ccccc2C1.[I-] (stereo not drawn) [Example 25, 1,1-Diethyl-2-[2-((indan-2-yl)(2-methylphenyl)amino)ethyl]piperidinium iodide]	26.4	89.6 (N = 2) %	Insoluble	Insoluble	1 to 10						
C[N+]1(C)CCCCC1CN(c1cccc(F)c1)C1Cc2ccccc2C1.[I-] (stereo not drawn) [Example 31, 1,1-Dimethyl-2-[((3-fluorophenyl)(indan-2-yl)amino)methyl]piperidinium iodide]	3.8	62.6 (N = 2) %	Insoluble	Insoluble							
Cc1cccc(N(CCC2CCCC[N+]2(C)C)C2Cc3ccccc3C2)c1.[I-] (stereo not drawn) [Example 19, 1,1-Dimethyl-2-[2-((indan-2-yl)(3-methylphenyl)amino)ethyl]piperidinium iodide]	0	87.9%	Insoluble	Insoluble	10 to 100						
C[N+]1(C)CCCC[C@H]1CN(c1ccccc1)C1Cc2ccccc2C1 [Example 32, (S)-1,1-Dimethyl-2-[((indan-2-yl)(phenyl)amino)methyl]piperidinium iodide]					10 to 100						
CC[N+]1(CC)CCCCC1CCN(c1cccc(C)c1)C1Cc2ccccc2C1.[I-] (stereo not drawn) [Example 21, 1,1-Diethyl-2-[2-((indan-2-yl)(3-methylphenyl)amino)ethyl]piperidinium iodide]	44.7	80.2 (N = 3) %	58.2 (N = 3) %	64.3 (N = 3) %	10 to 100						
Cc1ccccc1N(CCC1CC[N+](C)(C)CC1)C1Cc2ccccc2C1.[Br-] [Example 40, 1,1-dimethyl-4-[2-((indan-2-yl)(2-methylphenyl)amino)ethyl]piperidinium bromide]	34.3				10 to 100						
CC[N+]1(CC)CCCCC1CN(c1ccccc1)C1Cc2ccccc2C1.[I-] (stereo not drawn) [Example 13, 1,1-Diethyl-2-[((indan-2-yl)(phenyl)amino)methyl]piperidinium iodide]	67	99 (N = 2) %	64 (N = 2) %	92 (N = 2) %	10 to 100						
C[N+]1(C)CCCC1CCN(c1ccccc1)C1Cc2ccccc2C1.[I-] (stereo not drawn) [Example 5, 1,1-dimethyl-2-[2-((indan-2-yl)(phenyl)amino)ethyl]pyrrolidinium iodide]	21	50 (N = 2) %			10 to 100						
Cc1ccccc1N(CC[C@H]1CCCC[N+]1(C)C)C1Cc2ccccc2C1 [Example 35, (R)-1,1-Dimethyl-2-[2-((indan-2-yl)(2-methylphenyl)amino)ethyl]piperidinium iodide]					10 to 100						
Cc1cccc(N(CCC2CCCC[N+]2(C)C)C2Cc3ccccc3C2)n1.[I-] (stereo not drawn) [Example 47, 1,1-Dimethyl-2-[2-((indan-2-yl)(6-methylpyridine-2-yl)amino)ethyl]piperidinium iodide]	30.7	79.5 (N = 2) %			10 to 100						
Cc1cccc(N(CC2CCCC[N+]2(C)C)C2Cc3ccccc3C2)c1.[I-] (stereo not drawn) [Example 29, 1,1-Dimethyl-2-[((indan-2-yl)(3-methylphenyl)amino)methyl]piperidinium iodide]	68.9	82.9 (N = 2) %	64.6 (N = 2) %	75.3 (N = 2) %							
Cc1ccccc1N(CCC1CCCC[N+]1(C)C)C1Cc2ccccc2C1 (stereo not drawn) [Example 50, 1,1-Dimethyl-2-[2-((indan-2-yl)(2-methylphenyl)amino)ethyl]piperidinium chloride]					10 to 100						
C[N+]1(C)CCCCC1CCN(c1ccccn1)C1Cc2ccccc2C1.[I-] (stereo not drawn) [Example 37, 1,1-dimethyl-2-[2-((indan-2-yl)(pyridine-2-yl)amino)ethyl]piperidinium iodide]	21.5	60.7 (N = 2) %	59.5 (N = 2) %	24.0 (N = 2) %	10 to 100						
Cc1ccccc1N(CCC1CC[N+](C)(C)CC1)C1Cc2ccccc2C1.[I-] [Example 45, 1,1-Dimethyl-4-[2-((indan-2-yl)(2-methylphenyl)amino)ethyl]piperidinium iodide]	23.1	83.3 (N = 2) %									
CC[N+]1(CC)CCCCC1CN(c1ccc(C)cc1)C1Cc2ccccc2C1.[I-] (stereo not drawn) [Example 30, 1,1-Diethyl-2-[((indan-2-yl)(4-methylphenyl)amino)methyl]piperidinium iodide]	59.4	97.2 (N = 2) %	Insoluble	Insoluble							
